Laboratory results from patent publication US9850283B2, “Macrocyclic inhibitors of the PD-1/PD-L1 and CD80(B7-1)/PD-L1 protein/protein interactions” (BRISTOL-MYERS SQUIBB COMPANY, priority 2013, dated 2017).
Where two headings read alike, the source gives them in different places. Positions of bridges follow the written chain, without caps; N, C: chain ends. Non-standard residues stand in square brackets, D forms with d. Residues, ends and D or L forms follow the SMILES beside them. ξ: configuration not given here. Bta = N[C@@H](Cc1csc2ccccc12)C(=O)O; Hyp = O=C(O)[C@@H]1C[C@@H](O)CN1; NMeNle = CCCC[C@H](NC)C(=O)O; NMeA = CN[C@@H](C)C(=O)O; Dab = NCC[C@H](N)C(=O)O; Dap = NC[C@H](N)C(=O)O; ξhCys = NC(CCS)C(=O)O; Sar = CNCC(=O)O

Tests used:
[1] = target: T1, Human PD-L1/PD-1 (Homo sapiens, UniProt Q9NZQ7); assay: HTRF PD-1-Ig/PD-L1-His binding assay (human PD-L1); details: cluster symbol; read-out: HTRF IC50 cluster
T1 construct: made in house; host or cells: HEK293T
T1 sequence (Q9NZQ7 with tags, fused parts or gaps): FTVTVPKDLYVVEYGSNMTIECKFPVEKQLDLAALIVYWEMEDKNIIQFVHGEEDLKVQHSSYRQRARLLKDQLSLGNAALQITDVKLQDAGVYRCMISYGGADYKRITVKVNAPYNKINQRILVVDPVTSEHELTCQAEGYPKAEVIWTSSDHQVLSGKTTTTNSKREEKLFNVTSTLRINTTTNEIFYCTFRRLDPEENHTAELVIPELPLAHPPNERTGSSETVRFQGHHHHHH
Procedure, shortened: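 Soluble Fc-fused PD-1 and His-tagged PD-L1 (truncated before the transmembrane region) were combined in dPBS with 0.1% (w/v) BSA and 0.05% (v/v) Tween-20. Binding was read by HTRF using europium cryptate anti-Ig antibody (1 nM final) and APC anti-His antibody (20 nM final).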

[2] = target: T2, LK35.2-hPD-L1 cells / PE-labeled PD-1-Ig (Homo sapiens, UniProt Q9NZQ7); assay: LK35.2-hPD-L1 cell binding high-content screening assay; type: cell-based; details: cluster symbol, read-out: CBA IC50 cluster
T2 construct: expressed in transfected cells; host or cells: LK35.2 mouse B cell line
T2 sequence (Q9NZQ7 19-290): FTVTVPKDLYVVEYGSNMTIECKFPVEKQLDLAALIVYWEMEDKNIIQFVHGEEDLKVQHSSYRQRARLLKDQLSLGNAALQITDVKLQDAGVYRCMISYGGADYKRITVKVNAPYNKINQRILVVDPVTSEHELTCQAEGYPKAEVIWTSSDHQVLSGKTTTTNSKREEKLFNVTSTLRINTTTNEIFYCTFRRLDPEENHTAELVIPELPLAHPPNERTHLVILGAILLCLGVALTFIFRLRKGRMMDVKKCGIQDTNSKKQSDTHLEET
Procedure, shortened: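 Using overnight-cultured LK35.2-hPD-L1 mouse B cells, compound was co-incubated with phycoerythrin-tagged human PD-1-Ig (final 1 nM) at 37 °C for one hour. Unbound label was removed by triple dPBS washing prior to high-content image acquisition and analysis.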

[3] = cell binding assay, cell line not given
[4] = cell line of CBA not given (LK35.2-hPD-L1 or 293T-hPD-L1)

Structure (SMILES) | IC50 [1] [nM] | IC50 [2, 3] [nM] | IC50 [2, 4] [nM]
CCCC[C@H]1C(=O)N(C)[C@@H](CCCC)C(=O)N[C@@H](CCCNC(=N)N)C(=O)N[C@H](C(=O)NCC(N)=O)CSCC(=O)N[C@@H](Cc2ccc(O)cc2)C(=O)N2CCC[C@H]2C(=O)N[C@@H](CC(N)=O)C(=O)N2CCC[C@H]2C(=O)N[C@@H](Cc2cnc[nH]2)C(=O)N[C@@H](CC(C)C)C(=O)N2CCC[C@H]2C(=O)N[C@@H](Cc2c[nH]c3ccccc23)C(=O)N[C@@H](CO)C(=O)N[C@@H](Cc2c[nH]c3ccccc23)C(=O)N1C [Example 1136] ({CH2CO}-YPNPHLPWSW[NMeNle][NMeNle]RCG-NH2; thioether N-14) | 6.76 to 30.3 |  | 4.78 to 72.9
CCCC[C@H]1C(=O)N(C)[C@@H](CCCC)C(=O)N[C@@H](CCCNC(=N)N)C(=O)N[C@H](C(=O)NCC(N)=O)CSCC(=O)N[C@@H](Cc2ccc(O)cc2)C(=O)N(C)[C@@H](C)C(=O)N[C@@H](CC(N)=O)C(=O)N2CCC[C@H]2C(=O)N[C@@H](Cc2cnc[nH]2)C(=O)N[C@@H](CC(C)C)C(=O)N2C[C@H](O)C[C@H]2C(=O)N[C@@H](Cc2c[nH]c3ccccc23)C(=O)N[C@@H](CN)C(=O)N[C@@H](Cc2c[nH]c3ccccc23)C(=O)N1C [Example 1135] ({CH2CO}-Y[NMeA]NPHL[Hyp]W[Dap]W[NMeNle][NMeNle]RCG-NH2; thioether N-14) | 6.76 to 30.3 |  | 0.158 to 4.71
CCCC[C@H]1C(=O)N(C)[C@@H](CCCC)C(=O)N[C@@H](CCCNC(=N)N)C(=O)N[C@H](C(=O)NCC(N)=O)CSCC(=O)N[C@@H](Cc2ccccc2)C(=O)N(C)[C@@H](C)C(=O)N[C@@H](CC(N)=O)C(=O)N2CCC[C@H]2C(=O)N[C@@H](Cc2cnc[nH]2)C(=O)N[C@@H](CC(C)C)C(=O)NC(C)(C)C(=O)N[C@@H](Cc2c[nH]c3ccccc23)C(=O)N[C@@H](CO)C(=O)N[C@@H](Cc2c[nH]c3ccccc23)C(=O)N1C [Example 1110] | > 30.5 |  | > 74.3
CCCC[C@H]1C(=O)N[C@@H](CCCNC(=N)N)C(=O)N[C@H](C(=O)NCC(N)=O)CSCC(=O)N[C@@H](Cc2ccccc2)C(=O)N(C)[C@@H](C)C(=O)N[C@@H](CC(N)=O)C(=O)N2CCC[C@H]2C(=O)N[C@@H](Cc2cnc[nH]2)C(=O)N[C@@H](CC(C)C)C(=O)N(C)CC(=O)N[C@@H](Cc2c[nH]c3ccccc23)C(=O)N[C@@H](CO)C(=O)N[C@@H](Cc2c[nH]c3ccccc23)C(=O)N2CCC[C@H]2C(=O)N1C [Example 1005] (HELM PEPTIDE1{[O=C(C[*:3])[*:2]].F.[meA].N.P.H.L.[Sar].W.S.W.P.[CCCC[C@@H](C(=O)[*:2])N(C)[*:1]].R.C.G.[am]}$PEPTIDE1,PEPTIDE1,1:R3-15:R3$$$V2.0) | > 30.5 |  | > 74.3
CCCC[C@H]1C(=O)N(C)[C@@H](CCCC)C(=O)N[C@@H](CC(C)C)C(=O)N[C@H](C(=O)NCC(N)=O)CSCC(=O)N[C@@H](Cc2ccc(O)cc2)C(=O)N(C)[C@@H](C)C(=O)N[C@@H](CC(N)=O)C(=O)N2CCC[C@H]2C(=O)N[C@@H](Cc2c[nH]cn2)C(=O)N[C@@H](CCC(=O)O)C(=O)N2C[C@H](O)C[C@H]2C(=O)N[C@@H](Cc2c[nH]c3ccccc23)C(=O)N[C@@H](CO)C(=O)N[C@@H](Cc2c[nH]c3ccccc23)C(=O)N1C [Example 5003] ({CH2CO}-Y[NMeA]NPHE[Hyp]WSW[NMeNle][NMeNle]LCG-NH2; thioether N-14) | 6.76 to 30.3 | 0.158 to 4.71 | 

The remaining lines, values ahead:

IC50 [1] [nM] | IC50 [2, 3] [nM] | IC50 [2, 4] [nM] | Structure (SMILES)
6.76 to 30.3 | > 74.3 |  | CCCC[C@H]1C(=O)N(C)[C@@H](CCCC)C(=O)N[C@@H](CCCNC(=N)N)C(=O)NC(C(=O)NCC(N)=O)CCSCC(=O)N[C@@H](Cc2ccc(O)cc2)C(=O)N(C)[C@@H](C)C(=O)N[C@@H](CC(N)=O)C(=O)N2CCC[C@H]2C(=O)N[C@@H](Cc2cnc[nH]2)C(=O)N[C@@H](CC(C)C)C(=O)N2CCC[C@H]2C(=O)N[C@@H](Cc2c[nH]c3ccccc23)C(=O)N[C@@H](CO)C(=O)N[C@@H](Cc2c[nH]c3ccccc23)C(=O)N1C (stereo partly shown) [Example 9019] ({CH2CO}-Y[NMeA]NPHLPWSW[NMeNle][NMeNle]R[ξhCys]G-NH2; thioether N-14)
6.76 to 30.3 | 4.78 to 72.9 |  | CCCC[C@H]1C(=O)N(C)[C@@H](CCCC)C(=O)N[C@@H](CN)C(=O)N[C@H](C(=O)NCC(N)=O)CSCC(=O)N[C@@H](Cc2ccccc2)C(=O)N(C)[C@@H](C)C(=O)N[C@@H](CC(N)=O)C(=O)N2CCC[C@H]2C(=O)N[C@@H](Cc2cnc[nH]2)C(=O)N[C@@H](CC(C)C)C(=O)N(C)CC(=O)N[C@@H](Cc2c[nH]c3ccccc23)C(=O)N[C@@H](CO)C(=O)N[C@@H](Cc2c[nH]c3ccccc23)C(=O)N1C [Example 5007] ({CH2CO}-F[NMeA]NPHL[Sar]WSW[NMeNle][NMeNle][Dap]CG-NH2; thioether N-14)
0.385 to 6.74 | 4.78 to 72.9 |  | CCCC[C@H]1C(=O)N(C)[C@@H](CCCC)C(=O)N[C@@H](CCCNC(=N)N)C(=O)N[C@H](C(=O)NCC(N)=O)CSCC(=O)N[C@@H](Cc2ccc(O)cc2)C(=O)N(C)[C@@H](C)C(=O)N[C@@H](CCN)C(=O)N2CCC[C@H]2C(=O)N[C@@H](Cc2c[nH]cn2)C(=O)N[C@@H](CC(C)C)C(=O)N2C[C@H](O)C[C@H]2C(=O)N[C@@H](Cc2c[nH]c3ccccc23)C(=O)N[C@@H](CO)C(=O)N[C@@H](Cc2c[nH]c3ccccc23)C(=O)N1C [Example 5094] ({CH2CO}-Y[NMeA][Dab]PHL[Hyp]WSW[NMeNle][NMeNle]RCG-NH2; thioether N-14)
6.76 to 30.3 | 0.158 to 4.71 |  | CCCC[C@H]1C(=O)N(C)[C@@H](CCCC)C(=O)N[C@@H](CCCNC(=N)N)C(=O)N[C@H](C(=O)NCC(N)=O)CSCC(=O)N[C@@H](Cc2ccc(O)cc2)C(=O)N(C)[C@@H](C)C(=O)N[C@@H](CC(N)=O)C(=O)N2CCC[C@H]2C(=O)N[C@@H](CN)C(=O)N[C@@H](CC(N)=O)C(=O)N2C[C@H](O)C[C@H]2C(=O)N[C@@H](Cc2c[nH]c3ccccc23)C(=O)N[C@@H](CO)C(=O)N[C@@H](Cc2csc3ccccc23)C(=O)N1C [Example 6028] ({CH2CO}-Y[NMeA]NP[Dap]N[Hyp]WS[Bta][NMeNle][NMeNle]RCG-NH2; thioether N-14)
6.76 to 30.3 | 4.78 to 72.9 |  | CCCC[C@H]1C(=O)N(C)[C@@H](CCCC)C(=O)N[C@@H](CCCNC(=N)N)C(=O)N[C@H](C(=O)NCC(N)=O)CSCC(=O)N[C@@H](Cc2ccc(O)cc2)C(=O)N(C)[C@@H](C)C(=O)N[C@@H](CN)C(=O)N2CCC[C@H]2C(=O)N[C@@H](Cc2c[nH]cn2)C(=O)N[C@@H](CCC(=O)O)C(=O)N2C[C@H](O)C[C@H]2C(=O)N[C@@H](Cc2c[nH]c3ccccc23)C(=O)N[C@@H](CO)C(=O)N[C@@H](Cc2c[nH]c3ccccc23)C(=O)N1C [Example 5123] ({CH2CO}-Y[NMeA][Dap]PHE[Hyp]WSW[NMeNle][NMeNle]RCG-NH2; thioether N-14)
6.76 to 30.3 | 4.78 to 72.9 |  | CCCC[C@H]1C(=O)N(C)[C@@H](CCCC)C(=O)N[C@@H](CCCNC(=N)N)C(=O)N[C@H](C(=O)NCC(N)=O)CSCC(=O)N[C@@H](Cc2ccccc2)C(=O)N(C)[C@@H](C)C(=O)N[C@@H](CC(N)=O)C(=O)N2CCC[C@H]2C(=O)N[C@@H](Cc2cnc[nH]2)C(=O)N[C@@H](C(C)C)C(=O)N(C)CC(=O)N[C@@H](Cc2c[nH]c3ccccc23)C(=O)N[C@@H](CO)C(=O)N[C@@H](Cc2c[nH]c3ccccc23)C(=O)N1C [Example 6007] ({CH2CO}-F[NMeA]NPHV[Sar]WSW[NMeNle][NMeNle]RCG-NH2; thioether N-14)
